Patent US4268630A, “Microbiological production of ketones from C3 -C6 alkanes” (priority 1979, dated 1981)
Entries after “also recorded” stand apart in the source; their conditions may differ.

Legend:
[1] = system: Methanomonas methylovora ATCC 21852; test: Oxidation of sec-alcohols to ketones by resting cell suspension; type: cell-based
Description: (§1) The pH of the nutrient medium was adjusted to 7.0 by the addition of acid or base and 50 ml. samples of the nutrient medium were charged into a plurality of 300 ml. shaker flasks. The shaker flasks were inoculated with an inoculating loop of cells from an agar plate containing homogeneous colonies of the microorganisms on the plate (the purity of the isolates was confirmed by microscopic examination). The isolates had been maintained on methanol (0.4% V/V) agar plates or on agar plates under an atmosphere of methane and air having a 1:1 V/V gas ratio which had been transferred every two weeks. For growth on methanol, the medium was supplemented with 0.4% methanol. For growth on methane, the gaseous phase of the inoculated flasks was replaced with a gas mixture comprised on methane and air having a ratio of 1:1 on a V/V basis. The inoculated flasks were sealed air-tight and were incubated on a rotary shaker of orbital radius 2.5 cm. at 250 rpm and at 30° C. for two days until turbidity in the medium had developed. The cells were harvested by centrifugation at 10,000×g. at 4° C. for 30 minutes. The cell pellet was washed twice with a 0.05 M phosphate buffer at a pH of 7.0 (containing 0.02 M MgCl2). The washed cells were then suspended in a 0.05 M phosphate buffer at pH 7.0.
(§2) A 0.5 ml. sample of each washed cell suspension (2 mg. cells) was put into 10 ml. vials at 4° C. which were sealed with a rubber cap. The gaseous phase of the vials was removed with vacuum and then was replaced with a gas mixture of the substrate reactant (i.e., alkane or secondary alcohol) and oxygen at a 1:1 V/V ratio. (In the case of a liquid substrate, i.e., secondary alcohol, 10 μl of the substrate was put in the 10 ml. vials). […] Samples of product (1-3 μl) were withdrawn periodically with a microsyringe and the products were analyzed by gas chromatography (ionization flame detector column).
(§3) The procedure in Example 1 was repeated except that a plurality of methanol-utilizing methylotrophic microorganisms were each aerobically grown in a methanol-containing nutrient medium instead of a methane-containing medium. The nutrients in the medium were the same as indicated in Example 1 except that 0.4% V/V methanol was used as the alcohol dehydrogenase inducer and as the major carbon and energy source for growth. The cells were harvested and washed as described in Example 1. The resting microbial cells of the induced methanol-grown methanol-utilizing methylotrophic microorganisms were then contacted with C3 -C6 secondary alcohols in a buffered solution by the procedure of Example 1.
(§4) The procedure in Example 1 was repeated except that the methylotrophic microorganisms were each aerobically grown in an alcohol dehydrogenase-inducing growth medium containing methylamine or methyl formate as the alcohol dehydrogenase enzyme inducer and growth substrate instead of methane. The nutrients in the medium were the same as indicated in Example 1 except that 0.4% V/V of the alcohol dehydrogenase-inducer growth substrate was used as the major carbon and energy source. The cells were harvested and washed as described in Example 1. The resting microbial cells were then contacted with C3 -C6 secondary alcohols in a buffered solution by the conversion procedure of Example 1.

[2] = system: Pseudomonas sp. ATCC 21438; test: as above; type: cell-based
Description: as §1, §2, §3, §4

[3] = system: Torulopsis sp. Strain A1 (NRRL Y-11,419); test: Oxidation of sec-alcohols to ketones by cell suspensions of yeasts; type: cell-based
[4] = system: cell extracts of Kloeckera sp. strain A2 NRRL Y-11,420; test: NAD+-dependent oxidation of secondary alcohols by cell extracts of yeasts; type: biochemical; conditions: for Conversion Rate, secondary alcohol to methylketone: cell extracts, grown on methanol, NAD+, gas chromatography
[5] = system: cell suspensions of C1-utilizers; test: Production of 2-butanone from 2-butanol / sec-alcohol oxidation by cell suspensions of the strains tested; type: cell-based; conditions: cell suspensions of C1-utilizers
Source text: The substrate specificity for the oxidation of C3 -C6 secondary alcohols by the strains of C1 -utilizers was studied.

[6] = system: secondary alcohol dehydrogenase (SADH); test: Activity of purified secondary alcohol dehydrogenase (inhibition, substrate specificity, Km); type: biochemical, Pseudomonas sp. ATCC 21439; conditions: for relative percent rate of oxidation: 2-butanol = 100%
Description: Secondary alcohol dehydrogenase (SADH) from an obligate methanol utilizer, Pseudomonas sp. ATCC 21439 was purified as follows. […] 0.05 M sodium phosphate buffer, pH 7.0 with 0.5 mM dithiothretol (buffer A) and were disrupted sonically (5×1 min.). The crude extract was separated by centrifugation. The crude extract was heat-treated at 50° C. in a water bath for 10 minutes. The resulting precipitate was removed by centrifugation. To the supernatant solution, 25 ml of protamine sulfate solution (2% solution in 0.1 M Tris base) was added dropwise with continuous stirring. After standing for 30 minutes, the extract was centrifuged. The supernatant solution was fractionated with solid ammonium sulfate. The material precipitating between 30 and 60% saturation was collected and was dialized overnight against buffer A. The The dialized material was applied to a DEAE-cellulose column (3 cm by 35 cm) that had been equilibrated with buffer A. The secondary alcohol dehydrogenase activity was eluted in the void volume. This DEAE-cellulose eluate was concentrated by ammonium sulfate fractionation. Material precipitating between 30 and 50% ammonium sulfate saturation was collected by centrifugation and dialyzed overnight against A. This fraction was further washed and filtered through an Amicon unit with XM 50 membrane. The concentrated fraction (6 ml) inside the Amicon unit was applied to an Affi-Gel Blue column (0.8 cm×18 cm) which had been equilibrated with buffer A for affinity chromatography. The column was washed overnight with buffer A (0.18 ml./min.) and then was eluted with buffer A containing 5 mM NAD. Each 1 ml. fraction was collected.
The purified secondary alcohol dehydrogenase enzyme (SADH) may be used directly for converting C3 -C6 secondary alcohols to the corresponding methyl ketones by the procedures described above; however, a source of NAD^+ must be added to the reaction medium. One can determine the NAD-linked secondary alcohol dehydrogenase activity with a fluorescence spectrophotometer (Perkin Elmer, Model MPF 44A) by following the formation of reduced NAD (Ex 340 nm, Em 460 nm). The assay system (3 ml.) will typically contain: sodium phosphate buffer pH 7.0, 150 μmol; NAD 1.0 μmol; a given amount of enzyme preparation; and 20 μmol secondary alcohol. The reaction is started by the addition of secondary alcohol. One unit of SADH enzyme activity represents the reduction of one nmole NAD per minute.
The effect of metal-chelating agents and thioreagents on the activity of the purified SADH enzyme were studied. […] The possibility of ethanol or n-propanol as an inhibitor was studied.

Row | Compound | Conversion Rates, sec-alcohol to methyl ketone ([1]; methanol-grown, obligate) | Conversion Rates, sec-alcohol to methyl ketone ([1]; methyl formate-grown) | Conversion Rates, sec-alcohol to methyl ketone ([1]; methylamine-grown) | Conversion Rates, sec-alcohol to methyl ketone ([2]; methanol-grown, facultative) | Conversion Rates, sec-alcohol to methyl ketone ([2]; methyl formate-grown) | Conversion Rates, sec-alcohol to methyl ketone ([2]; methylamine-grown) | Conversion Rate, sec-alcohol to ketone ([3]; growth substrate Ethanol) | Conversion Rate, sec-alcohol to ketone ([3]; growth substrate Methanol) | Conversion Rate, sec-alcohol to ketone ([3]; growth substrate Methylamine) | Conversion Rate, sec-alcohol to ketone ([3]; growth substrate Methylformate) | Conversion Rate, sec-alcohol to ketone ([3]; growth substrate Propylamine) | Conversion Rate, secondary alcohol to methylketone [4] | substrate specificity: rate of oxidation of secondary alcohols (in words) [5] | substrate specificity of purified SADH (in words) [6] | relative percent rate of oxidation [6] | specific activities ([4]; spectrophotometric, 2-butanol as substrate)
1 | CCCCC(C)O (stereo not drawn) [2-Hexanol, 2-hexanol] | 1.0 μmoles/hr/mg protein | 0.60 μmoles/hr/mg protein | 0.09 μmoles/hr/mg protein | 0.7 μmoles/hr/mg protein | 0.80 μmoles/hr/mg protein | 0.07 μmoles/hr/mg protein | 0.20 μmoles/hr/mg of protein | 0.21 μmoles/hr/mg of protein | 0.12 μmoles/hr/mg of protein | 0.25 μmoles/hr/mg of protein | 0.10 μmoles/hr/mg of protein | 0.25 μmoles/hr/mg Protein | oxidized at a much slower rate | lower rate | 2% | 
2 | CCCC(C)O (stereo not drawn) [2-Pentanol, 2-pentanol] | 2.1 μmoles/hr/mg protein | 1.5 μmoles/hr/mg protein | 1.0 μmoles/hr/mg protein | 2.7 μmoles/hr/mg protein | 2.0 μmoles/hr/mg protein | 0.82 μmoles/hr/mg protein | 1.2 μmoles/hr/mg of protein | 1.0 μmoles/hr/mg of protein | 0.9 μmoles/hr/mg of protein | 1.1 μmoles/hr/mg of protein | 0.62 μmoles/hr/mg of protein | 1.2 μmoles/hr/mg Protein | oxidized at a much slower rate | lower rate | 5% | 
3 | CC(C)O [2-Propanol, 2-propanol] | 0.28 μmoles/hr/mg protein | 0.62 μmoles/hr/mg protein | 0.82 μmoles/hr/mg protein | 0.45 μmoles/hr/mg protein | 0.52 μmoles/hr/mg protein | 1.0 μmoles/hr/mg protein | 4.2 μmoles/hr/mg of protein | 4.5 μmoles/hr/mg of protein | 4.3 μmoles/hr/mg of protein | 4.5 μmoles/hr/mg of protein | 3.2 μmoles/hr/mg of protein | 4.8 μmoles/hr/mg Protein | oxidized at higher rates | highest | 85% | 
4 | CCC(C)O (stereo not drawn) [2-Butanol, 2-butanol] | 2.5 μmoles/hr/mg protein | 2.1 μmoles/hr/mg protein | 3.2 μmoles/hr/mg protein | 3.2 μmoles/hr/mg protein | 3.2 μmoles/hr/mg protein | 2.1 μmoles/hr/mg protein | 4.7 μmoles/hr/mg of protein | 4.9 μmoles/hr/mg of protein | 4.5 μmoles/hr/mg of protein | 4.9 μmoles/hr/mg of protein | 3.8 μmoles/hr/mg of protein | 5.9 μmoles/hr/mg Protein | oxidized at the highest rate; also recorded: oxidized at higher rates | highest |  | 90 nmoles NAD^+ reduced per min. per mg. protein
